Molecular target: T1, KRAS in AGS cells (KRAS G12D mutant cell line) or LS180 cells (KRAS G12D mutant cell line) (Homo sapiens, UniProt P01116, G12D)
T1 construct: CRL-187 (LS180) (so in the source); host or cells: AGS or LS180 cells
Assay: KRAS Western Blot (WB) assay
Type: cell-based
Conditions: KRAS degradation, 24 hours incubation, normalized to β-actin
Description: Day 1. Seeded AGS cells (KRAS G12D mutant cell line, ATCC, CRL-1739) or LS180 cells (KRAS G12D mutant cell line, ATCC, CRL-187) into 6-well plates (cell density: 3×10^5 cells/well/2 ml medium) in Ham's F-12 medium (Invitrogen, 11765-054) or Eagle's Minimum Essential Medium (ATCC, 30-2003) and incubated overnight at 37° C. and 5% CO2.
Day 2. Aspirated 1 ml medium from each well and added 1 ml medium containing DMSO or test compound into the well to achieve the desired final concentration. Mixed well by gentle shaking and incubated for 24 hours.
Day 3. Aspirated media from plates; washed cells with 2 ml 4° C. PBS (Solarbio, P1020-500) and aspirated the PBS. Then added 100 μl 4° C. […] lysis buffer (Boston BioProducts BP-115D) with protease and phosphatase inhibitors at vendor recommended concentrations (Roche 05892791001 and 04906837001) into each well to lyse the cells, and incubated for 20 minutes at 4° C. Cell lysate was collected into 1.5 ml Eppendorf tube, and the lysate was sonicated at 4° C. for 2 minutes (5 second pulse at 30% power with 10 second intermissions). The lysate was centrifuged at 12,000 rpm for 15 minutes at 4° C. The supernatant was transferred to a fresh Eppendorf tube, and protein concentration was quantified using a BCA kit (Solarbio, PC0020-500). Mixed the cell lysate and 5×NuPAGE SDS Loading Buffer (Beyotime, P0015L), and heated at 95° C. for 10 minutes in a heat block. Prepared samples were stored at −80° C. until SDS-PAGE procedure.
Day 4. Loaded 15 μg protein from each sample onto NuPAGE® Novex 4-12% Bis-Tris Midi Gel, 26 W (Invitrogen, WG1403BOX) and ran the gel at 120V for 1.5 hours in 1×NuPAGE® MOPS SDS Running Buffer (Novex, NP0001). Electrotransferred to nitrocellulose membrane using dry transfer method (iBlot 2 Transfer Stacks, nitrocellulose, IB23001) with a program consisting of 20V for 1 minute, 23V for 4 minutes and 25V for 2 minutes. Blocked the membrane with 5% BSA (Solarbio, A8020) in 1×TBST (CST, 9997S) for 1 hour at room temperature. Incubated with KRAS antibody (LSBio, LS-C175665, clone 2C1) at 1:1000 dilution and β-actin antibody at 1:1000 dilution (CST, 4970S) in TBST containing 1% BSA (Solarbio, A8020) at 4° C. overnight.
Day 5. Washed nitrocellulose membrane three times with 1×TBST for 10 minutes each at room temperature. Incubated with fluorescently labeled secondary antibodies at 1:5000 dilution in TBST containing 1% BSA (anti-rabbit IgG, Licor, 926-32211; anti-mouse IgG, LI-COR, 926-68070) for 1 hour at room temperature. Washed membrane three times with TBST, 10 minutes each. Scanned the membrane on LiCOR scanner for fluorescent signal(s) and quantified KRAS bands and β-actin bands for normalization.
The data are reported in Table 2, wherein “A” indicates a DC50 of less than 1 μM; “B” indicates a DC50 of greater than or equal to 1 μM and less than 10 μM; and “C” indicates a DC50 of greater than or equal to 10 μM.

T1 sequence (P01116 1-188 isoform P01116-2 G12D): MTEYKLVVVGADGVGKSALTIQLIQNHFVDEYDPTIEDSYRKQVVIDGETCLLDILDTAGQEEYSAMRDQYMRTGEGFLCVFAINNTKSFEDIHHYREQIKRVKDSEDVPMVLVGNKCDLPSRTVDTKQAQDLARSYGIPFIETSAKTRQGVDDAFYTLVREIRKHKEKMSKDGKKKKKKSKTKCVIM

Row | Structure (SMILES) | DC50
1 | C#Cc1c(F)ccc2cc(O)cc(-c3ncc4c(N5CC6CCC(C5)N6)nc(OC[C@@]56CCCN5[C@H](COC(=O)NCCCCCCCCCCc5cccc7c5n(C)c(=O)n7C5CCC(=O)NC5=O)CC6)nc4c3F)c12 (stereo partly drawn) [Compound 014, [(3S,8S)-8-[[4-(3,8-diazabicyclo[3.2.1]octan-3-yl)-7-(8-ethynyl-7-fluoro-3-hydroxy-1-naphthyl)-8-fluoro-pyrido[4,3-d]pyrimidin-2-yl]oxymethyl]-1,2,3,5,6,7-hexahydropyrrolizin-3-yl]methyl N-[10-[1-(2,6-dioxo-3-piperidyl)-3-methyl-2-oxo-benzimidazol-4-yl]decyl]carbamate] | A (DC50 less than 1 μM)
2 | C#Cc1c(F)ccc2cc(O)cc(-c3ncc4c(N5CC6CCC(C5)N6)nc(OC[C@@]56CCCN5[C@H](COC(=O)NCCCCCCCCCNc5cccc7c5C(=O)N(C5CCC(=O)NC5=O)C7=O)CC6)nc4c3F)c12 (stereo partly drawn) [Compound 016, ((3S,7aS)-7a-(((4-(3,8-diazabicyclo[3.2.1]octan-3-yl)-7-(8-ethynyl-7-fluoro-3-hydroxynaphthalen-1-yl)-8-fluoropyrido[4,3-d]pyrimidin-2-yl)oxy)methyl)hexahydro-1H-pyrrolizin-3-yl)methyl (9-((2-(2,6-dioxopiperidin-3-yl)-1,3-dioxoisoindolin-4-yl)amino)nonyl)carbamate] | A (DC50 less than 1 μM)
3 | C#Cc1c(F)ccc2cc(O)cc(-c3ncc4c(N5CC6CCC(C5)N6)nc(OC[C@@]56CCCN5[C@H](COC(=O)NCCCCCCNc5cccc7c5C(=O)N(C5CCC(=O)NC5=O)C7=O)CC6)nc4c3F)c12 (stereo partly drawn) [Compound 021, [(3S,8S)-8-[[4-(3,8-diazabicyclo[3.2.1]octan-3-yl)-7-(8-ethynyl-7-fluoro-3-hydroxy-1-naphthyl)-8-fluoro-pyrido[4,3-d]pyrimidin-2-yl]oxymethyl]-1,2,3,5,6,7-hexahydropyrrolizin-3-yl]methylN-[6-[[2-(2,6-dioxo-3-piperidyl)-1,3-dioxo-isoindolin-4-yl]amino]hexyl]carbamate] | B (DC50 greater than or equal to 1 μM and less than 10 μM)
4 | C#Cc1c(F)ccc2cc(O)cc(-c3ncc4c(N5CC6CCC(C5)N6)nc(OC[C@@]56CCCN5[C@H](COC(=O)NCCCNc5cccc7c5C(=O)N(C5CCC(=O)NC5=O)C7=O)CC6)nc4c3F)c12 (stereo partly drawn) [Compound 020, [(3S,8S)-8-[[4-(3,8-diazabicyclo[3.2.1]octan-3-yl)-7-(8-ethynyl-7-fluoro-3-hydroxy-1-naphthyl)-8-fluoro-pyrido[4,3-d]pyrimidin-2-yl]oxymethyl]-1,2,3,5,6,7-hexahydropyrrolizin-3-yl]methylN-[3-[[2-(2,6-dioxo-3-piperidyl)-1,3-dioxo-isoindolin-4-yl]amino]propyl]carbamate] | C (DC50 greater than or equal to 10 μM)
5 | C#Cc1c(F)ccc2cc(O)cc(-c3ncc4c(N5CC6CCC(C5)N6)nc(OC[C@@]56CCCN5[C@H](COC(=O)NCCc5ccc7c(c5)n(C)c(=O)n7C5CCC(=O)NC5=O)CC6)nc4c3F)c12 (stereo partly drawn) [Compound 002, [(3S,8S)-8-[[4-(3,8-diazabicyclo[3.2.1]octan-3-yl)-7-(8-ethynyl-7-fluoro-3-hydroxy-1-naphthyl)-8-fluoro-pyrido[4,3-d]pyrimidin-2-yl]oxymethyl]-1,2,3,5,6,7-hexahydropyrrolizin-3-yl]methyl N-[2-[1-(2,6-dioxo-3-piperidyl)-3-methyl-2-oxo-benzimidazol-5-yl]ethyl]carbamate] | C (DC50 greater than or equal to 10 μM)
6 | C#Cc1c(F)ccc2cc(O)cc(-c3ncc4c(N5CC6CCC(C5)N6)nc(OC[C@@]56CCCN5[C@H](COC(=O)NCCCCCCCCCc5cccc7c5n(C)c(=O)n7C5CCC(=O)NC5=O)CC6)nc4c3F)c12 (stereo partly drawn) [Compound 012] | A (DC50 less than 1 μM)
7 | C#Cc1c(F)ccc2cc(O)cc(-c3ncc4c(N5CC6CCC(C5)N6)nc(OC[C@@]56CCCN5[C@H](COC(=O)NCCCCCCCCCCCc5ccc7c(c5)n(C)c(=O)n7C5CCC(=O)NC5=O)CC6)nc4c3F)c12 (stereo partly drawn) [Compound 009, [(3S,8S)-8-[[4-(3,8-diazabicyclo[3.2.1]octan-3-yl)-7-(8-ethynyl-7-fluoro-3-hydroxy-1-naphthyl)-8-fluoro-pyrido[4,3-d]pyrimidin-2-yl]oxymethyl]-1,2,3,5,6,7-hexahydropyrrolizin-3-yl]methyl N-[11-[1-(2,6-dioxo-3-piperidyl)-3-methyl-2-oxo-benzimidazol-5-yl]undecyl]carbamate] | A (DC50 less than 1 μM)
8 | C#Cc1c(F)ccc2cc(O)cc(-c3ncc4c(N5C[C@H]6CC[C@@H](C5)N6)nc(OC[C@@]56CCCN5[C@H](COC(=O)NCCCCCCCCCCc5ccc7c(c5)n(C)c(=O)n7C5CCC(=O)NC5=O)CC6)nc4c3F)c12 (stereo partly drawn) [Compound 013, ((3S,7aS)-7a-(((4-((1R,5S)-3,8-diazabicyclo[3.2.1]octan-3-yl)-7-(8-ethynyl-7-fluoro-3-hydroxynaphthalen-1-yl)-8-fluoropyrido[4,3-d]pyrimidin-2-yl)oxy)methyl)hexahydro-1H-pyrrolizin-3-yl)methyl (10-(1-(2,6-dioxopiperidin-3-yl)-3-methyl-2-oxo-2,3-dihydro-1H-benzo[d]imidazol-5-yl)decyl) carbamate] | A (DC50 less than 1 μM)
9 | C#Cc1c(F)ccc2cc(O)cc(-c3ncc4c(N5CC6CCC(C5)N6)nc(OC[C@@]56CCCN5[C@H](COC(=O)NCCCCCCCCCc5ccc7c(c5)n(C)c(=O)n7C5CCC(=O)NC5=O)CC6)nc4c3F)c12 (stereo partly drawn) [Compound 010, [(3S,8S)-8-[[4-(3,8-diazabicyclo[3.2.1]octan-3-yl)-7-(8-ethynyl-7-fluoro-3-hydroxy-1-naphthyl)-8-fluoro-pyrido[4,3-d]pyrimidin-2-yl]oxymethyl]-1,2,3,5,6,7-hexahydropyrrolizin-3-yl]methyl N-[9-[1-(2,6-dioxo-3-piperidyl)-3-methyl-2-oxo-benzimidazol-5-yl]nonyl]carbamate] | A (DC50 less than 1 μM)
10 | C#Cc1c(F)ccc2cc(O)cc(-c3ncc4c(N5CC6CCC(C5)N6)nc(OC[C@@]56CCCN5[C@H](COC(=O)NCCCCCCCCNc5cccc7c5C(=O)N(C5CCC(=O)NC5=O)C7=O)CC6)nc4c3F)c12 (stereo partly drawn) [Compound 018] | B (DC50 greater than or equal to 1 μM and less than 10 μM)
11 | C#Cc1c(F)ccc2cc(O)cc(-c3ncc4c(N5CC6CCC(C5)N6)nc(OC[C@@]56CCCN5[C@H](COC(=O)NCCCCNc5cccc7c5C(=O)N(C5CCC(=O)NC5=O)C7=O)CC6)nc4c3F)c12 (stereo partly drawn) [Compound 019, [(3S,8S)-8-[[4-(3,8-diazabicyclo[3.2.1]octan-3-yl)-7-(8-ethynyl-7-fluoro-3-hydroxy-1-naphthyl)-8-fluoro-pyrido[4,3-d]pyrimidin-2-yl]oxymethyl]-1,2,3,5,6,7-hexahydropyrrolizin-3-yl]methyl-N-[4-[[2-(2,6-dioxo-3-piperidyl)-1,3-dioxo-isoindolin-4-yl]amino]butyl]carbamate] | C (DC50 greater than or equal to 10 μM)
12 | C#Cc1c(F)ccc2cc(O)cc(-c3ncc4c(N5CC6CCC(C5)N6)nc(OC[C@]56CCCN5[C@@H](COC(=O)NCCCCCCNc5cccc7c5C(=O)N(C5CCC(=O)NC5=O)C7=O)CC6)nc4c3F)c12 (stereo partly drawn) [Compound 022, [(3R,8R)-8-[[4-(3,8-diazabicyclo[3.2.1]octan-3-yl)-7-(8-ethynyl-7-fluoro-3-hydroxy-1-naphthyl)-8-fluoro-pyrido[4,3-d]pyrimidin-2-yl]oxymethyl]-1,2,3,5,6,7-hexahydropyrrolizin-3-yl]methyl N-[6-[[2-(2,6-dioxo-3-piperidyl)-1,3-dioxo-isoindolin-4-yl]amino]hexyl]carbamate] | C (DC50 greater than or equal to 10 μM)

Reference: patent publication US12404285B2, “KRAS G12D proteolysis targeting chimeras” (PAQ Therapeutics Inc., priority 2022, dated 2025)
